{"source": "patent US6413947B1", "about": "“Anilide derivative, production and use thereof” (Takeda Chemical Industries, Ltd., priority 1997, dated 2002)", "note": "Structures can show the parent of a compound that is named as a salt.", "data": [{"values": [{"molecule": "COc1cccnc1C(O)c1ccc(NC(=O)C2=Cc3cc(-c4ccc(C)cc4)ccc3OCC2)cc1", "note": "(stereo not drawn) [Compound 169, N-[4-[hydroxy(3-methoxy-pyridin-2-yl)methyl]phenyl]-7—(4-methylphenyl)-2,3-dihydro-1-benzoxepine-4-carboxamide]", "melting point": "232 to 233 °C"}, {"molecule": "Cc1ccc(-c2ccc3c(c2)C=C(C(=O)Nc2ccc(CN(C(C)C)C(C)C)cc2)CCO3)cc1", "note": "[Compound 119, N-(4—((diisopropylamino)methyl)phenyl)-7—(4-methylphenyl)-2,3-dihydro-1-benzoxepine-4-carboxamide]", "melting point": "152 to 153 °C"}, {"molecule": "CN(C)c1ccc(-c2ccc3c(c2)C=C(C(=O)Nc2ccc(CP4(=O)CCCCC4)cc2)CCO3)cc1.Cl", "melting point": "162 to 163 °C"}, {"molecule": "Cc1ccc(-c2ccc3c(c2)C=C(C(=O)Nc2ccc(CNCC4CCCCC4)cc2)CCO3)cc1", "note": "[Compound 122, N-(4—((cyclohexylmethyl)aminomethyl)phenyl)-7—(4-methylphenyl)-2,3-dihydro-1-benzoxepine-4-carboxamide]", "melting point": "154 to 155 °C"}, {"molecule": "Cc1ccc(-c2ccc3c(c2)C=C(C(=O)Nc2ccc(-c4cccnc4)cc2)CCO3)cc1", "note": "[Compound 164, N-[4—(3-pyridyl)phenyl]-7—(4-methylphenyl)-2,3-dihydro-1-benzoxepine-4-carboxamide]", "melting point": "214 to 216 °C"}, {"molecule": "CCP(=O)(CC)Cc1ccc(NC(=O)/C=C/c2cccc(-c3ccc(C)cc3)c2)cc1", "note": "[Compound 187, (E)-N-(4-diethylphosphorylmethylphenyl)-3—(4-methylphenyl)cinnamamide]", "melting point": "197 to 198 °C"}, {"molecule": "Cc1ccc(-c2ccc3c(c2)C=C(C(=O)Nc2ccc(-c4ccc[n+]([O-])c4)cc2)CCO3)cc1", "note": "[Compound 165, N-[4—(1-oxidopyridin-3-yl)phenyl]-7—(4-methylphenyl)-2,3-dihydro-1-benzoxepine-4-carboxamide]", "melting point": "262 °C (dec.)"}, {"molecule": "Cc1ccc(-c2ccc3c(c2)C=C(C(=O)Nc2ccc(CN4CCCCC4)cc2)CCS3)cc1", "note": "[Compound 93, 7—(4-methylphenyl)-N-(4-piperidinomethylphenyl)-2,3-dihydro-1-benzothiepine-4-carboxamide]", "melting point": "203 to 204 °C"}, {"molecule": "CN(Cc1ccc(NC(=O)C2=Cc3cc(-c4ccc(Cl)cc4)ccc3OCC2)cc1)C1CCOCC1", "note": "[Compound 181, N-[4-[N-methyl-N-(tetrahydropyran-4-yl)aminomethyl]-phenyl]-7—(4-chlorophenyl)-2,3-dihydro-1-benzoxepine-4-carboxamide]", "melting point": "191 to 192 °C"}, {"molecule": "Cc1ccc(-c2ccc3c(c2)C=C(C(=O)Nc2ccc(C[N+](C)(C)CCCO)cc2)CCO3)cc1.[I-]", "note": "[Compound 240, dimethyl-3-hydroxypropyl-(N-(7-(4-methylphenyl)-2,3-dihydro-1-benzoxepin-4-carbonyl)-4-aminobenzyl)ammonium iodide]", "melting point": "216 to 219 °C"}, {"molecule": "Cc1ccc(-c2cccc(/C=C/C(=O)Nc3ccc(C(O)c4cccc[n+]4[O-])cc3)c2)cc1", "note": "(stereo not drawn) [Compound 80, (E)-N-[4-[hydroxy(1-oxido-2-pyridyl)methyl]-phenyl]-3—(4-methylphenyl)cinnamamide]", "melting point": "165 to 167 °C"}, {"molecule": "Cc1ccc(-c2cccc(/C=C/C(=O)Nc3ccc(CN4CCCC(O)C4)cc3)c2)cc1", "note": "(stereo not drawn) [Compound 67, (E)-N-[4—(3-hydroxypiperidino-methyl)phenyl]-3—(4-methylphenyl)cinnamamide]", "melting point": "132 to 134 °C"}, {"molecule": "Cc1ccc(-c2ccc3c(c2)C=C(C(=O)Nc2ccc(-c4cccc[n+]4[O-])cc2)CCO3)cc1", "note": "[Compound 160, N-[4—(1-oxidopyridin-2-yl)phenyl]-7—(4-methylphenyl)-2,3-dihydro-1-benzoxepine-4-carboxamide]", "melting point": "254 °C (dec.)"}, {"molecule": "Cc1ccc(-c2ccc3c(c2)C=C(C(=O)Nc2ccc(CN4CCC(O)CC4)cc2)CC3)cc1", "note": "[Compound 49, N-[4—(4-hydroxypiperidinomethyl)phenyl]-7—(4-methylphenyl)-3,4-dihydronaphthalene-2-carboxamide]", "melting point": "223 to 224 °C"}, {"molecule": "CN(Cc1ccc(NC(=O)C2=Cc3cc(-c4ccc(C(C)(C)C)cc4)ccc3OCC2)cc1)C1CCOCC1", "note": "[Compound 179, N-[4-[N-methyl-N-(tetrahydropyran-4-yl)aminomethyl]phenyl]-7—(4-tert-butylphenyl)-2,3-dihydro-1-benzoxepine-4-carboxamide]", "melting point": "193 to 194 °C"}, {"molecule": "Cc1ccc(S(=O)(=O)N2CCC(c3cccc4c3CCCC(C(=O)Nc3ccc(CN(C)C5CCOCC5)cc3)=C4)CC2)cc1", "note": "[Compound 289, 4-[1-(4-methylphenylsulfonyl)piperidin-4-yl]-N-(4-(N-methyl-N-(tetrahydropyran-4-yl)aminomethyl]phenyl]-6,7-dihydro-5H-benzocycloheptene-8-carboxamide]", "melting point": "175 to 176 °C"}, {"molecule": "Cc1ccc(-c2cccc(/C=C/C(=O)Nc3ccc(-c4cccc[n+]4[O-])cc3)c2)cc1", "note": "[Compound 189, (E)-N-[4—(1-oxidopyridin-2-yl)phenyl]-3—(4-methylphenyl)cinnamamide]", "melting point": "240 to 241 °C"}, {"molecule": "Cc1ccc(-c2cccc(/C=C/C(=O)Nc3ccc(C(O)c4ccccn4)cc3)c2)cc1", "note": "(stereo not drawn) [Compound 79, (E)-N-[4-[hydroxy(2-pyridyl)methyl]phenyl]-3—(4-methylphenyl)cinnamamide]", "melting point": "162 to 165 °C"}, {"molecule": "Cc1ccc(-c2ccc3nc(C)c(C(=O)Nc4ccc(CN(C)C5CCOCC5)cc4)cc3c2)cc1", "note": "[Compound 216, N-[4-[N-methyl-N-(tetrahydropyran-4-yl)aminomethyl]phenyl]-6—(4-methylphenyl)-2-methylquinoline-3-carboxamide]", "melting point": "157 to 160 °C"}, {"molecule": "O=C(Nc1cccc(CN2CCCCC2)c1)C1=Cc2cc(-c3ccccc3)ccc2CC1", "note": "[Compound 217, 7-phenyl-N-[3—(piperidinomethyl)phenyl]-3,4-dihydronaphthalene-2-carboxamide]", "melting point": "152 to 153 °C"}, {"molecule": "Cc1ccc(-c2ccc3c(c2)C=C(C(=O)Nc2ccc(C[S+]([O-])c4ccccc4)cc2)CCO3)cc1", "note": "(stereo not drawn) [Compound 108, 7—(4-methylphenyl)-N-(4—(phenylsulfinylmethyl)phenyl)-2,3-dihydro-1-benzoxepine-4-carboxamide]", "melting point": "127 to 128 °C"}, {"molecule": "Cc1ccc(-c2ccc3c(c2)C=C(C(=O)Nc2ccc(C(=O)C4CCCCN4)cc2)CCO3)cc1", "note": "(stereo not drawn) [Compound 156, N-(4—(piperidin-2-ylcarbonyl)phenyl)-7—(4-methylphenyl)-2,3-dihydro-1-benzoxepine-4-carboxamide]", "melting point": "195 to 196 °C (dec.)"}, {"molecule": "CCOc1ccc(-c2ccc3c(c2)C=C(C(=O)Nc2ccc(CN(C)C4CCOCC4)cc2)CCO3)cc1", "note": "[Compound 185, 7—(4-ethoxyphenyl)-N-(4-[N-methyl-N-(tetrahydropyran-4-yl)aminomethyl]phenyl]-2,3-dihydro-1-benzoxepine-4-carboxamide]", "melting point": "174 to 176 °C"}, {"molecule": "Cc1ccc(-c2ccc3c(c2)C=C(C(=O)Nc2ccc(CN(C)C4CCOCC4)cc2)CC(c2ccccc2)O3)cc1", "note": "(stereo not drawn) [Compound 101, 7—(4-methylphenyl)-2-phenyl-N-(4—((N-tetrahydropyran-4-yl-N-methylamino)methyl)phenyl)-2,3-dihydro-1-benzoxepine-4-carboxamide]", "melting point": "178 to 179 °C"}, {"molecule": "CN(Cc1ccc(NC(=O)C2=Cc3cc(-c4ccc(N5CCOCC5)cc4)ccc3SCC2)cc1)C1CCOCC1", "note": "[Compound 285, N-[4-[N-methyl-N-(tetrahydropyran-4-yl)aminomethyl]phenyl]-7-(4-morpholinophenyl)-2,3-dihydro-1-benzothiepine-4-carboxamide]", "melting point": "255 to 259 °C"}, {"molecule": "O=C(Nc1ccc(CN2CCCCC2)cc1)c1ccc2ccc(-c3ccccc3)cc2c1", "note": "[Compound 58, N-[4—(piperidinomethyl)phenyl]-7-phenylnaphthalene-2-carboxamide]", "melting point": "177 to 178 °C"}, {"molecule": "Cc1ccc(-c2ccc3c(c2)C=C(C(=O)Nc2ccc(CP4(=O)CCCCC4)cc2)CCC3)cc1", "note": "[Compound 252, 2-(4-methylphenyl)-N-(4-((1-oxophosphorinane-1-yl)methyl)phenyl)-6,7-dihydro-5H-benzocycloheptene-8-carboxamide]", "melting point": "282 to 283 °C (dec.)"}, {"molecule": "Cc1ccc(-c2ccc3c(c2)C=C(C(=O)Nc2ccc(CN(C)C4CCOCC4)cc2)CCO3)s1", "note": "[Compound 290, N-[4-[N-methyl-N-(tetrahydropyran-4-yl)amino-methyl]phenyl]-7-(5-methyl-2-thienyl)-2,3-dihydro-1-benzoxepine-4-carboxamide]", "melting point": "129 to 130 °C"}, {"molecule": "Cc1ccc(-c2ccc3c(c2)C=C(C(=O)Nc2ccc(CN(C)C4CCOCC4)cc2)CCN3S(=O)(=O)C(F)(F)F)cc1", "note": "[Compound 321, 7-(4-methylphenyl)-N-[4-[[N-methyl-N-(tetrahydro-2H-pyran-4-yl)amino]methyl]-phenyl]-1-[(trifluoromethyl)sulfonyl]-2,3-dihydro-1-benzazepine-4-carboxamide]", "melting point": "185 to 187 °C"}, {"molecule": "Cc1ccc(-c2ccc3c(c2)C=C(C(=O)Nc2ccc(CS(=O)(=O)C4CCCCC4)cc2)CCO3)cc1", "note": "[Compound 107, N-(4—(cyclohexylsulfonylmethyl)phenyl)-7—(4-methylphenyl)-2,3-dihydro-1-benzoxepine-4-carboxamide]", "melting point": "250 to 251 °C"}, {"molecule": "Cc1ccc(-c2ccc3c(c2)C=C(C(=O)Nc2ccc(C[N+]4(C)CCCCC4)cc2)CCC3)cc1", "note": "(as salt: iodide) [Compound 92, 1—(N-(2—(4-methylphenyl)-6,7-dihydro-5H-benzocycloheptene-8-carbonyl)-4-aminobenzyl)-1-methylpiperidinium iodide]", "melting point": "220 to 221 °C (dec.)"}, {"molecule": "Cc1csc(-c2ccc3c(c2)C=C(C(=O)Nc2ccc(CN(C)C4CCOCC4)cc2)CCO3)c1", "note": "[Compound 292, N-[4-[N-methyl-N-(tetra-hydropyran-4-yl)aminomethyl]phenyl]-7-(4-methyl-2-thienyl)-2,3-dihydro-1-benzoxepine-4-carboxamide]", "melting point": "147 to 148 °C"}, {"molecule": "Cc1ccc(-c2cccc(/C=C/C(=O)Nc3ccc(CN4CCCCC4CO)cc3)c2)cc1", "note": "(stereo not drawn) [Compound 68, (E)-N-[4-[2—(hydroxy-methyl)piperidinomethyl]phenyl]-3—(4-methylphenyl)cinnamamide]", "melting point": "137 to 139 °C"}]}]}
